Patent US12233036B2, “Inhibitors of autophagy and DCAR-1 as novel anthelmintic agents” (FLORIDA ATLANTIC UNIVERSITY BOARD OF TRUSTEES, priority 2019, dated 2025)

Test system: wild type C. elegans
Test: Pheromone-induced dauer formation in wild type C. elegans in the presence of DHCA
Format: in vivo
Conditions: wild type (N2) C. elegans treated by pheromone, pheromone alone around 20% dauer
Experimental: FIG. 5 is a bar graph showing that dihydrocaffeic acid (DHCA) is the ligand for DCAR-1 GPCR. DHCA is the food signal that competes with the dauer-inducing pheromone to suppress dauer formation. (*P<0.01, t-test, N2 treated with 0 nM DHCA compared to N2 treated with 25 nM DHCA and N2 treated with 25 nM DHCA compared to N2 treated with 100 nM DHCA. ns, no statistical significant difference.) Recovery of dauer larvae requires the presence of food. G protein-coupled receptors (GPCRs) detect molecules such as food odors and activate internal signal transduction pathways. We identified a GPCR, DCAR-1, which is involved in detection of food signals in C. elegans. […] The recovery percentage of daf-2 and daf-7 mutant dauer larvae decreased by 25% when dcar-1 is mutated. Dihydrocaffeic acid (DHCA) is the ligand for DCAR-1. […] When wild type C. elegans was treated by pheromone, around 20% of animals entered dauer. However, in the presence of 25 nM DHCA, the percentage of dauer was decreased to 5%. […] Thus, DCAR-1 inhibitors act to block detection of foods signals by infective nematode parasites and to suppress the growth of parasites to adults.

Q: For `O=C(O)CCc1ccc(O)c(O)c1` [DHCA, Dihydrocaffeic acid], which percentage of dauer (25 nM DHCA) is on record?
A: 5%

Q: What about the percentage of dauer (100 nM DHCA) of the same compound?
A: none of animals formed dauer
